Experimental data published in publication PMC11341359, “Assessing the immunogenicity risk of salmon calcitonin peptide impurities using in silico and in vitro methods” (Frontiers in Pharmacology, 2024).
Peptide text beside a SMILES is read from it.

How the values were obtained:
Test in all cases: Class II HLA competition binding assay
HLA DRB1*0101 = molecular target: T1, HLA DRB1*0101 (Homo sapiens, UniProt P01903+P01911, A100R/D57E/F55L/F60I/F76Y/I96L/L162R/M171V/P40L/Q125E/R42F/V115G/Y59C); settings: short assay peptides (Cys7 replaced with Ser), competition with biotinylated allele-specific peptide, soluble HLA DR, overnight, time-resolved fluorescence, triplicate, seven concentrations
T1 construct: incubated overnight to equilibrium with a soluble HLA DR molecule; purchased Benaroya Research Institute, Seattle, Washington
Protocol: (§1) The class II HLA binding assays performed for these studies measure the binding affinity of a target peptide to HLA DRB1*0101, *0301, *0401, *0701, *0901, *1101, *1301, and *1501 in a standardized competition assay. This assay was originally described by [Steere et al. (2006)] and adapted by EpiVax. Previous publications have described the assay in detail ([McMurry et al., 2007]; [Ardito et al., 2011]). Briefly, unlabeled test peptides are incubated overnight to equilibrium with a soluble HLA DR molecule (Benaroya Research Institute, Seattle, Washington) and a biotinylated, allele-specific competitor peptide. The binding reaction is then neutralized, and peptide–HLA complexes are transferred to a 96-well plate coated with the pan-HLA DR antibody, clone L243 (BioLegend), and incubated overnight. The following day, Europium-labeled streptavidin (PerkinElmer, Waltham, MA) is added to identify the peptide–HLA complexes. An indirect measure of binding is determined by time-resolved fluorescence. Each peptide–HLA binding reaction is evaluated in triplicate over a range of seven concentrations. The percent inhibition values at seven distinct concentrations are used to calculate the IC50 value, defined as the concentration at which the test peptide inhibits 50% of the labeled competitor peptide.
(§2) Peptides that bind to the HLA at an IC50 value of 100 nM or less are considered very high-affinity binders. Peptides that bind at IC50 values ranging from 100 nM to 1,000 nM are considered high-affinity binders. Peptides that bind at IC50 values ranging from 1,000 nM to 10,000 nM are considered moderate-affinity binders. Peptides that bind at IC50 values ranging from 10,000 nM to 100,000 nM are considered low-affinity binders, and those with IC50 values ranging from 100,000 nM to 1,000,000 nM are considered negligible-affinity binders. […] We note that these concentrations are specific for the in vitro HLA-binding assay and are used to compare the relative binding affinities of the impurity sequences to the API and independent from the peptide concentrations described for the in vitro T-cell assays described below.

HLA DRB1*0301 = molecular target: T2, HLA DRB1*0301 (Homo sapiens, UniProt P01903+P01911, A100K/A102G/A103R/A169T/F55Y/I96L/K41T/L162R/M171V/P40S/Q125H/Q178H/Q39Y/R42S/S66N/T106N/T262R/W38E/Y61H); settings: short assay peptides (Cys7 replaced with Ser), competition with biotinylated allele-specific peptide, soluble HLA DR, overnight, time-resolved fluorescence, triplicate, seven concentrations; for IC50, HLA DRB1*0301: unit not given
T2 construct: incubated overnight to equilibrium with a soluble HLA DR molecule; purchased Benaroya Research Institute, Seattle, Washington
Protocol: as §1, §2

HLA DRB1*0401 = molecular target: T3, HLA DRB1*0401 (Homo sapiens, UniProt P01903+P01911, A100K/A169T/F76Y/I96L/K127E/L162R/M171V/N62H/P40V/Q125Y/R42H/S133A/S149N/S66Y/V115G/V209L/W38E); settings: short assay peptides (Cys7 replaced with Ser); competition with biotinylated allele-specific peptide, soluble HLA DR, overnight, time-resolved fluorescence, triplicate, seven concentrations
T3 construct: incubated overnight to equilibrium with a soluble HLA DR molecule; purchased Benaroya Research Institute, Seattle, Washington
Protocol: as §1, §2

HLA DRB1*0701 = HLA DRB1*0701 (Homo sapiens, UniProt P01903+P01911, A100R/A102G/A103Q/D57E/D86V/E43K/F76Y/K127E/L162R/M171V/P40G/Q125H/Q99D/R33Q/R42Y/R54Q/S133A/S66F/T210M/V115G/Y107V/Y59L/Y89S); settings: short assay peptides (Cys7 replaced with Ser); competition with biotinylated allele-specific peptide, soluble HLA DR, overnight, time-resolved fluorescence, triplicate, seven concentrations
Protocol: as §1, §2

HLA DRB1*0901 = HLA DRB1*0901 (Homo sapiens, UniProt P01903+P01911, A100R/A103E/D57H/D86V/F55Y/F60I/F76Y/I96F/K127E/L162R/M171V/P40D/Q125H/Q99R/R33Q/R42F/S133A/S66N/T210M/V115G/W38K/Y107V/Y59G/Y89S); settings: short assay peptides (Cys7 replaced with Ser); competition with biotinylated allele-specific peptide, soluble HLA DR, overnight, time-resolved fluorescence, triplicate, seven concentrations
Protocol: as §1, §2

HLA DRB1*1101 = molecular target: T4, HLA DRB1*1101 (Homo sapiens, UniProt P01903+P01911, A100R/A169T/A87E/I96F/K41T/L162R/M171V/P40S/Q125H/Q178H/Q39Y/Q99D/R42S/S66Y/T262R/V115G/W38E)
T4 construct: incubated overnight to equilibrium with a soluble HLA DR molecule; purchased Benaroya Research Institute, Seattle, Washington
Protocol: as §1, §2

HLA DRB1*1301 = molecular target: T5, HLA DRB1*1301 (Homo sapiens, UniProt P01903+P01911, A100E/A169T/K41T/L162R/M171V/P40S/Q125H/Q178H/Q39Y/Q99D/R42S/S66N/T262R/W38E/Y61H); settings: short assay peptides (Cys7 replaced with Ser), competition with biotinylated allele-specific peptide, soluble HLA DR, overnight, time-resolved fluorescence, triplicate, seven concentrations
T5 construct: incubated overnight to equilibrium with a soluble HLA DR molecule; purchased Benaroya Research Institute, Seattle, Washington
Protocol: as §1, §2

HLA DRB1*1501 = molecular target: T6, HLA DRB1*1501 (Homo sapiens, UniProt P01903+P01911)
T6 construct: incubated overnight to equilibrium with a soluble HLA DR molecule; purchased Benaroya Research Institute, Seattle, Washington
Protocol: as §1, §2

[1] = short assay peptides (Cys7 replaced with Ser), competition with biotinylated allele-specific peptide, soluble HLA DR, overnight, time-resolved fluorescence, triplicate, seven concentrations, unit inferred
[2] = class by IC50, short assay peptides

Row | SMILES | IC50 (HLA DRB1*0101; unit inferred) | IC50 (HLA DRB1*0301; unit inferred) | IC50 (HLA DRB1*0401) | IC50 (HLA DRB1*0701) | IC50 (HLA DRB1*0901) | IC50 (HLA DRB1*1101; [1]) | IC50 (HLA DRB1*1301; unit inferred) | IC50 (HLA DRB1*1501; [1]) | IC50, HLA DRB1*0101 (HLA DRB1*0101; unit not given) | IC50, HLA DRB1*0301 (HLA DRB1*0301) | IC50, HLA DRB1*0401 (HLA DRB1*0401) | IC50, HLA DRB1*0901 (HLA DRB1*0901) | binding affinity class, HLA DRB1*1101 (HLA DRB1*1101; [2]) | binding affinity class, HLA DRB1*1501 (HLA DRB1*1501; [2]) | IC50, HLA DRB1*1301 (HLA DRB1*1301; unit not given)
1 | CC(C)C[C@H](NC(=O)[C@H](CCCCN)NC(=O)CNC(=O)[C@H](CC(C)C)NC(=O)[C@@H](NC(=O)[C@H](CO)NC(=O)[C@@H](NC(=O)[C@@H](N)CO)[C@@H](C)O)C(C)C)C(=O)N[C@@H](CO)C(=O)N[C@@H](CCC(N)=O)C(=O)N[C@@H](CCC(=O)O)C(=O)N[C@@H](CC(C)C)C(=O)N[C@@H](Cc1c[nH]cn1)C(=O)N[C@@H](CCCCN)C(=O)N[C@@H](CC(C)C)C(=O)N[C@@H](CCC(N)=O)C(=O)N[C@H](C(=O)N[C@@H](Cc1ccc(O)cc1)C(=O)O)[C@@H](C)O [API SCT(5-22)] (H-STSVLGKLSQELHKLQTY-OH) | 11.1 µM | > 1000 µM | > 1000 µM | > 1000 µM | > 1000 µM | 105 µM | > 1000 µM | 95.9 µM |  |  |  |  |  |  | 
2 | CC(C)C[C@H](NC(=O)[C@H](CCCCN)NC(=O)[C@@H](N)Cc1c[nH]cn1)C(=O)N[C@@H](CCC(N)=O)C(=O)N[C@H](C(=O)N[C@@H](Cc1ccc(O)cc1)C(=O)N1CCC[C@H]1C(=O)N[C@@H](CCCNC(=N)N)C(=O)N[C@H](C(=O)N[C@H](C(=O)NCC(=O)N[C@@H](CO)C(=O)NCC(=O)N[C@H](C(=O)O)[C@@H](C)O)[C@@H](C)O)[C@@H](C)O)[C@@H](C)O [DES-ASN26_SCT(17-31)] (H-HKLQTYPRTTGSGT-OH; N-terminus and C-terminus assumed) |  |  |  |  |  |  |  |  | no binding | no binding | no binding | no binding | negligible affinity | moderate affinity | 
3 | CC(C)C[C@H](NC(=O)[C@H](CCC(=O)O)NC(=O)[C@H](CCC(N)=O)NC(=O)[C@@H](N)CO)C(=O)N[C@@H](Cc1c[nH]cn1)C(=O)N[C@@H](CCCCN)C(=O)N[C@@H](CC(C)C)C(=O)N[C@@H](CCC(N)=O)C(=O)N[C@@H](Cc1ccc(O)cc1)C(=O)N1CCC[C@H]1C(=O)N[C@@H](CCCNC(=N)N)C(=O)N[C@H](C(=O)N[C@@H](CC(N)=O)C(=O)N[C@H](C(=O)NCC(=O)N[C@@H](CO)C(=O)NCC(=O)N[C@H](C(=O)O)[C@@H](C)O)[C@@H](C)O)[C@@H](C)O [DES-THR21_SCT(13-27)] (H-SQELHKLQYPRTNTGSGT-OH; N-terminus and C-terminus assumed) |  |  |  |  |  |  |  |  |  | did not bind | did not bind |  |  |  | did not bind
